# Measured values taken from patent publication US20250333397A1 (REMIX THERAPEUTICS INC., priority 2021, published 2025).
# Read-outs that look alike come from different tables or passages of the source.
# Columns and labels:
# Assay type in all cases: cell-based, human
# [1] = tested on: HTT mRNA; assay: RT-qPCR splicing assay, HTT canonical (CJ) and alternative (AJ) junction mRNA; conditions: Homo sapiens; for AC50: read-out: HTT AJ (AC50, increase in AJ mRNA)
# How it was run: (§1)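 Junction-specific RT-qPCR read the canonical exon-exon junction and the compound-induced alternative-exon junction, normalized to GAPDH, GUSB or PPIA and then to DMSO (2^(-ΔΔCt)). Input was lysate from A673 or K562 cells exposed for 24 h to compound up to 10 uM.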
# [2] = tested on: MYB mRNA; assay: RT-qPCR splicing assay, MYB canonical (CJ) and alternative (AJ) junction mRNA; conditions: Homo sapiens; for AC50: read-out: MYB AJ (AC50, increase in AJ mRNA)
# How it was run: as §1
# [3] = tested on: Target C mRNA; assay: RT-qPCR splicing assay panel, Target C canonical junction (CJ) mRNA; conditions: Homo sapiens
# How it was run: as §1
# [4] = tested on: SMN2 mRNA; assay: RT-qPCR splicing assay panel, SMN2 canonical junction (CJ) mRNA; conditions: Homo sapiens
# How it was run: as §1
# [5] = 24 h, Table 3A, A673 or K562 cells, 24 h treatment
# [6] = 24 h, Table 3A, A673 or K562 cells, 24 h treatment, read-out: HTT CJ (IC50, decrease in CJ mRNA)
# [7] = canonical junction (CJ) mRNA, RT-qPCR panel, Table 4A, read-out: HTT, decrease in CJ mRNA levels, IC50
# [8] = 24 h, Table 3A, A673 or K562 cells, 24 h treatment, read-out: MYB CJ (IC50, decrease in CJ mRNA)
# [9] = canonical junction (CJ) mRNA, RT-qPCR panel, Table 4A, read-out: MYB, decrease in CJ mRNA levels, IC50
# [10] = canonical junction (CJ) mRNA, RT-qPCR panel, Table 4A, read-out: Target C, decrease in CJ mRNA levels, IC50
# [11] = canonical junction (CJ) mRNA, RT-qPCR panel, Table 4A, read-out: SMN2, decrease in CJ mRNA levels, IC50
# [12] = 24 h, Table 3B, A673 or K562 cells, 24 h treatment
# [13] = 24 h, Table 3B, A673 or K562 cells, 24 h treatment, read-out: HTT CJ (IC50, decrease in CJ mRNA)
# [14] = Table 4B, gene panel, read-out: HTT (IC50, decrease in CJ mRNA levels)
# [15] = 24 h, Table 3B, A673 or K562 cells, 24 h treatment, read-out: MYB CJ (IC50, decrease in CJ mRNA)
# [16] = Table 4B, gene panel, read-out: MYB (IC50, decrease in CJ mRNA levels)
# [17] = Table 4B, gene panel, read-out: Target C (IC50, decrease in CJ mRNA levels)
# [18] = Table 4B, gene panel, read-out: SMN2 (IC50, decrease in CJ mRNA levels)
SMILES,"AC50 [1, 5] [µM]","IC50 [1, 6] [µM]","IC50 [1, 7] [µM]","AC50 [2, 5] [µM]","IC50 [2, 8] [µM]","IC50 [2, 9] [µM]","IC50 [3, 10] [µM]","IC50 [4, 11] [µM]","AC50 [1, 12] [µM]","IC50 [1, 13] [µM]","IC50 [1, 14] [µM]","AC50 [2, 12] [µM]","IC50 [2, 15] [µM]","IC50 [2, 16] [µM]","IC50 [3, 17] [µM]","IC50 [4, 18] [µM]"
"COc1cc(-c2ccc(-c3cc(C#N)c(N4CC[C@H](NC5CCC5)C4)nn3)c(O)c2)cnn1 [Compound 343, 3-[(3S)-3-(cyclobutylamino)pyrrolidin-1-yl]-6-[2-hydroxy-4-(6-methoxypyridazin-4-yl)phenyl]pyridazine-4-carbonitrile]",1 to 10,0.1 to 1,0.1 to 1,> 10,> 10,> 10,1 to 10,0.1 to 1,,,,,,,,
"Cc1ncc(-c2cc(O)c(-c3ccc(N4CCC(NC5CCOCC5)C4)nn3)cc2F)s1 (centres unmarked) [Compound 354, 4-fluoro-5-(2-methyl-1,3-thiazol-5-yl)-2-{6-[3-(oxan-4-ylamino)pyrrolidin-1-yl]pyridazin-3-yl}phenol]",< 0.1,< 0.1,< 0.1,< 0.1,0.1 to 1,0.1 to 1,< 0.1,< 0.1,,,,,,,,
Cc1ncc(-c2cc(O)c(-c3ccc(N4CC[C@@H](N[C@H](C)C5CC5)C4)nn3)cc2F)s1 [Compound 418],< 0.1,< 0.1,< 0.1,< 0.1,< 0.1,< 0.1,< 0.1,< 0.1,,,,,,,,
"COc1cc(-c2ccc(-c3ccc(N4CC[C@@](C)(NC5CCC5)C4)nn3)c(O)c2)ncn1 [Compound 366, 2-{6-[(3R)-3-(cyclobutylamino)-3-methylpyrrolidin-1-yl]pyridazin-3-yl}-5-(6-methoxypyrimidin-4-yl)phenol]",< 0.1,< 0.1,< 0.1,0.1 to 1,0.1 to 1,0.1 to 1,0.1 to 1,< 0.1,,,,,,,,
CCC(C)(C)NC1CCN(c2ccc(-c3cc4oc(C)nc4cc3O)nn2)C1 (centres unmarked) [Compound 836],,,,,,,,,1 to 10,0.1 to 1,0.1 to 1,1 to 10,1 to 10,1 to 10,1 to 10,0.1 to 1
Oc1cc(-c2cc(OC(F)F)ncn2)ccc1-c1ccc(N2CCC(NCC3CC3)C2)nn1 (centres unmarked) [Compound 370],> 10,> 10,> 10,> 10,> 10,> 10,> 10,0.1 to 1,,,,,,,,
COc1cc2cc(-c3ccc(N4CCC(NC(C)(C)C)C4)nn3)c(O)cc2nn1 (centres unmarked) [Compound 819],,,,,,,,,1 to 10,1 to 10,1 to 10,1 to 10,1 to 10,1 to 10,1 to 10,0.1 to 1
"COc1cc(-c2ccc(-c3ccc(N4CCC(NC(C)(C)C)C4=O)nn3)c(O)c2)cnn1 (centres unmarked) [Compound 219, 3-(tert-butylamino)-1-{6-[2-hydroxy-4-(6-methoxypyridazin-4-yl)phenyl]pyridazin-3-yl}pyrrolidin-2-one]",1 to 10,1 to 10,1 to 10,1 to 10,1 to 10,1 to 10,1 to 10,1 to 10,,,,,,,,
"Oc1cc(-c2cn[nH]c2)c(F)cc1-c1ccc(N2CC[C@H](NC3CCC3)C2)nn1 [Compound 113, 2-{6-[(3S)-3-(cyclobutylamino)pyrrolidin-1-yl]pyridazin-3-yl}-4-fluoro-5-(1H-pyrazol-4-yl)phenol]",< 0.1,< 0.1,< 0.1,< 0.1,< 0.1,< 0.1,< 0.1,< 0.1,,,,,,,,
Oc1cc(-n2cnnc2)ccc1-c1ccc(N2CCC(NC3CCC3)C2)nn1 (centres unmarked) [Compound 345],1 to 10,1 to 10,1 to 10,1 to 10,1 to 10,1 to 10,> 10,0.1 to 1,,,,,,,,
COc1cc(-c2ccc(-c3ccc(N4CC[C@@H](NC5CCC5)C4)nn3)c(O)c2)cnn1 [Compound 264],0.1 to 1,< 0.1,< 0.1,0.1 to 1,0.1 to 1,0.1 to 1,0.1 to 1,< 0.1,,,,,,,,
Cc1ccc2cc(-c3ccc(N4CCC(NC(C)(C)C)C4)nn3)c(O)cc2n1 (centres unmarked) [Compound 817],,,,,,,,,> 10,> 10,> 10,> 10,> 10,> 10,> 10,1 to 10
Cc1ncc(-c2cc(O)c(-c3ccc(OC4CC(C)(C)NC(C)(C)C4)nn3)cc2F)s1 [Compound 385],< 0.1,< 0.1,< 0.1,0.1 to 1,0.1 to 1,0.1 to 1,0.1 to 1,< 0.1,,,,,,,,
COc1nc(-c2cnc(N3CCC(NC4CCC4)C3)nn2)ccc1-c1cnc(C)s1 (centres unmarked) [Compound 421],0.1 to 1,0.1 to 1,0.1 to 1,0.1 to 1,0.1 to 1,0.1 to 1,0.1 to 1,0.1 to 1,,,,,,,,
"Cc1ncc(-c2cc(O)c(-c3ccc(N4CCC(CNC5CCC5)C4)nn3)cc2F)s1 (centres unmarked) [Compound 342, 2-(6-{3-[(cyclobutylamino)methyl]pyrrolidin-1-yl}pyridazin-3-yl)-4-fluoro-5-(2-methyl-1,3-thiazol-5-yl)phenol]",< 0.1,< 0.1,< 0.1,1 to 10,> 10,> 10,< 0.1,< 0.1,,,,,,,,
"COc1cc(-c2cc(O)c(-c3ccc(N4CC[C@](C)(NC5CCC5)C4)nn3)cc2F)cnn1 (single isomer, unassigned) [Compound 309, 2-{6-[3-(cyclobutylamino)-3-methylpyrrolidin-1-yl]pyridazin-3-yl}-4-fluoro-5-(6-methoxypyridazin-4-yl)phenol]",0.1 to 1,< 0.1,< 0.1,1 to 10,1 to 10,1 to 10,0.1 to 1,< 0.1,,,,,,,,
